Patent US12569470B2, “Vasodilator and use thereof” (Bioradical Research Institute Corp., priority 2019, dated 2026)

What was measured:
Type in all cases: cell-based
rat neuroid cells B50 [1] = test: Cytoprotection against singlet oxygen (Rose Bengal + G-LED), Alamar Blue fluorescence; conditions: 0, 12.5, 25, 50, or 100 μmol/1, RB 200 nmol/1 + G-LED 5 minutes, negative control being 100, FIG. 3
Protocol: Edaravone, ED2AP and BisEp-C3 were examined for whether they had the function of alleviating neuronopathy. Specifically, singlet oxygen was generated by combining Rose Bengal (RB), which is a sensitizer, with green light (G-LED), and the function of alleviating the cytotoxicity of the generated singlet oxygen was examined with the cellular activity being an indicator.
First, rat neuroid cells B50 were cultured in 12-well dishes at 2×10^5 cells/well (medium: RPMI-1640 medium containing 5% FCS) overnight. After the culturing, the medium of each well was replaced with HBSS (1,000 μl/well; phenol red-free Ca+, Mg+) containing 200 nmol/1 RB and edaravone, ED2AP, or BisEp-C3 having a predetermined concentration (0, 12.5, 25, 50, or 100 μmol/1). The dish was then irradiated with G-LED for 5 minutes to generate singlet oxygen. Thereafter, the medium of each well was replaced with 1,000 μl of HBSS, and Alamar Blue was added. The dish was then allowed to react for about 2 hours in an incubator at 37° C. and 5%CO2. After the reaction, fluorescence intensity (excitation wavelength: λ- 560 nm, fluorescence wavelength: λ-595 nm) was measured with a plate reader (infinite200, Tecan Trading AG). In this experimental system, the higher the cellular activity, the more Alamar Blue is taken up and the higher the fluorescence intensity. As a control, fluorescence intensity was measured in the same manner except that sodium azide (Azide, NaN3) was added instead of the compounds so as to achieve a concentration of 4 mmol/1. As a negative control (NC), fluorescence intensity was measured in the same manner except that RB was not added. The relative value of the fluorescence intensity in the sample to which each compound was added was calculated with the fluorescence intensity of the negative control being 100.

rat neuroid cells B50 [2] = test: Toxicity evaluation, cell viability by Alamar Blue; conditions: 12.5, 25, 50, 100, or 200 μmol/1, 24 hours, FIG. 5
Protocol: Rat neuroid cells B50 were seeded in 12-well plates and then cultured. Edaravone (RC), ED2AP, or BisEp-C3 was added to each well so as to achieve a predetermined concentration (12.5, 25, 50, 100, or 200 μmol/1), and then incubated for 24 hours at 37° C. and 5% CO2. Cell viability in each well after the culture was measured using Alamar Blue.

rat neuroid cells B50 [3] = test: Toxicity evaluation on byproducts after reaction with singlet oxygen; conditions: byproducts after reaction with singlet oxygen, 50, 100, or 200 μmol/1, FIG. 6
Protocol: In a cell-free system, the RB was added to media (5% FCS-containing RPMI-1640 media) containing edaravone, ED2AP, and BisEp-C3 having a predetermined concentration (50, 100, or 200 μmol/1) and then irradiated with LED (G-LED) at 525 nm to generate singlet oxygen, whereby reacting each compound with singlet oxygen. The cell viability was measured in the same manner as in Example 7(1), except that the culture solution after the reaction was used as a medium of the neuroid cell B50. As a negative control (NC), the cell viability was measured in the same manner except that each compound and […] were not added in the cell-free system. Further, as a control (RB), the cell viability was measured in the same manner except that each compound was not added and only […] was added in the cell-free system.

Structure (SMILES): CC1=NN(c2ccccc2)C(=O)C1 [Edaravone, 3-methyl-1-phenyl-5-pyrazolone, reference compound]
- relative value of the fluorescence intensity (rat neuroid cells B50 [1]): not recovered
- cell viability (cytotoxicity) (rat neuroid cells B50 [2]): not cytotoxic at any concentration
- cell viability (cytotoxicity of byproducts) (rat neuroid cells B50 [3]): not cytotoxic at any concentration
